Laboratory results taken from PMC4526861, “Inhibition of protein kinase C by isojacareubin suppresses hepatocellular carcinoma metastasis and induces apoptosis in vitro and in vivo” (Scientific Reports, 2015).

What was measured:
[1] = tested on: HepG2 cells; assay: Apoptosis assay, Annexin V-FITC/PI flow cytometry; assay type: cell-based, human; details: 48 h
Method: To further explore the potential mechanisms of the antiproliferative effects induced by compound 7 and ISJ, Annexin V-FITC/PI double staining was performed to quantify cellular apoptosis by flow cytometry. HepG2 cells were cultured for 48 h in the absence or presence of compound 7 or ISJ at different concentrations (5 or 15 μM).
HepG2 cells were seeded in six-well plates (5 × 10^5 cells/mL) for 24 h and then treated with various amounts of the compounds or 1% DMSO (as control). After 48 h, the cells floating in the medium were collected, and the adherent cells were detached with 0.05% trypsin, washed twice with cold PBS, and centrifuged at 1000 rpm for 5 min at 4 °C. Subsequently, HepG2 cells were gently resuspended in the binding buffer. Thereafter, the cells were stained using the Annexin V-FITC/PI apoptosis detection kit (BD Biosciences, San Jose, CA, USA). After incubation at room temperature for 15 min in the dark, the apoptotic cells were immediately analyzed by flow cytometry (FACS Calibur).

[2] = tested on: PKCζ; assay: Western blot of PKC isoform expression in cytosol and membrane; assay type: cell-based, human; details: HepG2, 24 h incubation
Method: To further determine whether compound 7 and ISJ represent potential candidates for selective PKC expression inhibitors against hepatoma, the expression of PKC isoforms in HepG2 cells was characterized by western blotting. After 24 h of incubation with GFX, GO, ISJ and compound 7 at the indicated concentrations, PKC proteins from the cytosol and membrane of HepG2 cells were evaluated. ISJ and compound 7 treatments reduced both the cytosol and cell membrane expression of PKCζ.
The total membrane and cytosolic proteins were extracted using a Membrane and Cytosol Protein Extraction Kit (Beyotime). Extracted proteins from cells or animal tissues were separated by SDS-PAGE and transferred to polyvinylidene difluoride (PVDF) membranes (Bio-Rad). The PVDF membranes were blocked with 5% nonfat milk and incubated with primary antibodies overnight, followed by incubation with a donkey anti-rabbit or anti-mouse secondary antibody (IRDye 800, LI-COR, Biosciences). The images were captured using the Odyssey Infrared Imaging System (LI-COR, Biosciences), according to the manufacturer's instructions. The intensity was quantitative with Quantity One software (Bio-Rad). To ensure equal protein loading, each membrane was stripped and reprobed with an anti-β-actin antibody. All experiments were repeated independently no less than three times.

[3] = molecular target: T1, PKCε (Homo sapiens, UniProt Q02156); assay: Cell-based pull-down assay, PKCε; assay type: binding; details: HepG2 lysates
T1 construct: Endogenous cPKC (PKCα) and nPKC (PKCδ, PKCε and PKCμ) in HepG2 lysates were pulled down; endogenous in cells; host or cells: HepG2
T1 sequence (Q02156 1-737): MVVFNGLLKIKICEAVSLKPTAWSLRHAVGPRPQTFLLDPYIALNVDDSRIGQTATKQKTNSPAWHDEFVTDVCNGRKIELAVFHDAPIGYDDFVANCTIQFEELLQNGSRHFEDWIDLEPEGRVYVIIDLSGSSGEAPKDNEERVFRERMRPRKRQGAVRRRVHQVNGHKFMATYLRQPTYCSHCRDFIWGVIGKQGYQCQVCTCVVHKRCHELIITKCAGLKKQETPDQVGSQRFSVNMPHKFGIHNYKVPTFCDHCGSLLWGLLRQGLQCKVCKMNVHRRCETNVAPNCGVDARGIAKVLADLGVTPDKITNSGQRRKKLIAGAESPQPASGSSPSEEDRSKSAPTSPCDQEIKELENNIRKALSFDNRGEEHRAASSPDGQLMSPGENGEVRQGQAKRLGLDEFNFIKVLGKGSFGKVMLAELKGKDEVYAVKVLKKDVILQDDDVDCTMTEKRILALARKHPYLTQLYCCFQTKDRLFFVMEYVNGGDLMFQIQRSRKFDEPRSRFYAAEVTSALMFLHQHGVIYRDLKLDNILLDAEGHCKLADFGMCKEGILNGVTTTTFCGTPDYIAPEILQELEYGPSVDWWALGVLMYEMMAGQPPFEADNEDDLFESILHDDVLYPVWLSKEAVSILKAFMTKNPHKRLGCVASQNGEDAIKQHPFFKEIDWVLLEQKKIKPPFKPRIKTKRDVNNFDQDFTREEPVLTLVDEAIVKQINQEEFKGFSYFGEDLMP
Method: (§1) To identify whether ISJ and compound 7 target PKC in cells, we performed pull-down experiments using ISJ- and compound 7-coupled Sepharose beads with HepG2 cell lysates. Endogenous cPKC (PKCα) and nPKC (PKCδ, PKCε and PKCμ) in HepG2 lysates were pulled down by ISJ-coupled CNBr-activated Sepharose 4B beads (Fig. 5a).
(§2) The control beads were prepared by incubating the beads with DMSO. Proteins (500 μg) from lysed HepG2 cells were mixed with either the control beads, compound 7-coupled beads, or ISJ-coupled beads (100 μL) in reaction buffer [50 mM Tris (pH 7.5), 5 mM EDTA, 150 mM NaCl, 1 mM DTT, 0.01% NP-40, 2 μg/mL BSA, 1 mM PMSF, 1% protease inhibitor mixture]. After incubation with gentle rocking overnight at 4 °C, the beads were washed 5 times with washing buffer [50 mM Tris (pH 7.5), 5 mM EDTA, 150 mM NaCl, 1 mM DTT, 0.01% NP-40, 1 mM PMSF], and binding was visualized by western blotting.

[4] = tested on: cPKC and nPKC; assay: Pull-down competition with free ISJ; assay type: binding, human; details: free ISJ 20 μM, HepG2 lysates
Text: as §1
Figure 5 Direct interactions between ISJ and PKC isotypes. (a) Immobilized on CNBr-activated Sepharose 4B beads, ISJ directly bound to cPKC (PKCα) and nPKC (PKCδ, PKCε and PKCμ). (b) HepG2 cell lysates were incubated with ISJ-conjugated Sepharose 4B beads or with DMSO-conjugated control beads in the absence or presence of free ISJ (20 μM), and the bead-captured proteins were subjected to analysis by immunoblotting.
as §2

[5] = tested on: c-PARP, p53 and p21; assay: Western blot of apoptotic proteins, HepG2; assay type: cell-based, human; details: HepG2, 24 h
Method: Additional PKC targeting effects involved in the early response of major MAPK phosphorylation and the late response of HCC cell invasion and apoptosis were investigated. After 24 h of treatment with ISJ at the indicated concentrations, the total protein lysates from HCC cells were analyzed (Fig. 6). ISJ inhibited the phosphorylated, activated forms of c-Raf, MEK1/2 and ERK1/2 in the MAPK signaling pathway in both HepG2 and QGY-7703 cells (Fig. 6a). […] In contrast, E-cadherin expression was elevated, specifically at the highest concentration of ISJ (20 μM) (Fig. 6b). In addition, we analyzed several representative apoptotic proteins, including cleaved PARP (c-PARP), p53 and p21. […] These findings support our hypothesis that ISJ restrains HCC cell metastasis and induces HCC cell apoptosis by specifically inhibiting PKC.
The total membrane and cytosolic proteins were extracted using a Membrane and Cytosol Protein Extraction Kit (Beyotime). Extracted proteins from cells or animal tissues were separated by SDS-PAGE and transferred to polyvinylidene difluoride (PVDF) membranes (Bio-Rad). The PVDF membranes were blocked with 5% nonfat milk and incubated with primary antibodies overnight, followed by incubation with a donkey anti-rabbit or anti-mouse secondary antibody (IRDye 800, LI-COR, Biosciences). […] The intensity was quantitative with Quantity One software (Bio-Rad). […]

## Isojacareubin [ISJ]
[1]; 5 μM
  number of apoptotic cells compared to the control group: did not alter
[1]; 15 μM
  percentage of apoptotic cells: increased significantly
[2]
  PKCζ expression in cytosol and cell membrane: significantly decreased
[3]
  pull-down of endogenous PKCε by compound-coupled Sepharose 4B beads: pulled down
[4]
  amounts of cPKC and nPKC captured by ISJ-coupled 4B beads in presence of free compound: obvious decline
[5]
  expression levels of c-PARP, p53 and p21: increased
